In paper PMC5327470, “Discovery and Optimization of Novel 5-Indolyl-7-arylimidazo[1,2-a]pyridine-8-carbonitrile Derivatives as Potent Antitubulin Agents Targeting Colchicine-binding Site” (Scientific Reports, 2017):

Columns and labels:
[1] = system: SMMC-7721 (human liver cancer); test: MTT antiproliferative assay, SMMC-7721; format: cell-based; settings: 72 h, mean ± SD
Description: Data represent the mean values ± standard deviation (SD) of independent experiments performed in triplicate.
All of the cells were purchased from the American Type Culture Collection (ATCC, Manassas, VA).
The antiproliferative activities in vitro of Crolibulin and all the target compounds were determined by an MTT assay. Briefly, cells were seeded into 96-well plates at a density of 1–3 × 10^4/well (depends on the cell growth rate). 24 h later, triplicate wells were treated with media and the agents. […] After 4 h of incubation, the medium with MTT was removed, and […] of DMSO was added to each well. The plates were gently agitated until the purple formazan crystals were dissolved, and the OD490 was determinedusing a microplate reader (MK3, Thermo, Germany). The data were calculated and plotted as the percent viability compared to the control.

H460 (human lung cancer) = test: MTT antiproliferative assay, H460; format: cell-based; settings: MTT, 72 h, mean ± SD
Description: (§1) To evaluate the antiproliferative activity, all synthesized derivatives (5a–5v and 7a–7h) were investigated for their activity in vitro against a panel of cancer cell lines including HT-29 (human colon cancer), H460 (human lung cancer), A549 (human lung carcinoma), MKN-45 (human gastric cancer) and SMMC-7721 (human liver cancer) by MTT assay. CA-4 and Crolibulin were served as positive control, and the results expressed as half-maximal inhibitory concentration (IC50). IC50 values are the concentrations that cause 50% inhibition of cancer cell growth (μM). Data represent the mean values ± standard deviation (SD) of independent experiments performed in triplicate.
(§2) The antiproliferative activities in vitro of Crolibulin and all the target compounds were determined by an MTT assay. Briefly, cells were seeded into 96-well plates at a density of 1–3 × 10^4/well (depends on the cell growth rate). 24 h later, triplicate wells were treated with media and the agents. After 72 h ofincubation at 37 °C in 5% CO2, the drug containing medium wasremoved and replaced by […] of fresh medium with 5 mg/mLMTT solution. After 4 h of incubation, the medium with MTT was removed, and […] of DMSO was added to each well. The plates were gently agitated until the purple formazan crystals were dissolved, and the OD490 was determinedusing a microplate reader (MK3, Thermo, Germany). The data were calculated and plotted as the percent viability compared to the control. The 50% inhibitory concentration (IC50) was defined as theconcentration that reduced the absorbance of the untreated wells by 50% of the vehicle in the MTT assay.

[2] = system: MKN-45 (human gastric cancer); test: MTT antiproliferative assay, MKN-45; format: cell-based; settings: 72 h, mean ± SD, read-out: IC50 (μM) ±SD MKN45
Description: as §1
(§3) Cell lines and culture conditions.The human colon carcinoma cell line HT-29, the human pulmonary carcinoma cell line A549, the human gastric carcinoma cell line MKN-45, the human breast cancer cell line MDA-MB-231 and human heptocarcinoma cellline SMMC-7721were cultured in RPMI-1640 mediumcontaining 10% FBS, 100 U/mL streptomycin and 100 U/mL penicillinat 37 °C in humidified atmosphere with 5% CO2. All of the cells were purchased from the American Type Culture Collection (ATCC, Manassas, VA).
as §2

[3] = system: HT-29 (human colon cancer); test: MTT antiproliferative assay, HT-29; format: cell-based; settings: for IC50: Homo sapiens, HT-29, MTT, 72 h, mean ± SD, read-out: IC50 (μM) ±SD HT29
Description: as §1, §3, §2

[4] = system: A549 (human lung carcinoma); test: MTT antiproliferative assay, A549; format: cell-based; settings: 72 h, mean ± SD
Description: as §1, §3, §2

Row | IC50 [1] [µM] | IC50 (H460 (human lung cancer); Homo sapiens, NCI-H460, 72 h) [µM] | IC50 [2] [µM] | IC50 [3] [µM] | IC50 [4] [µM] | melting point [°C] | IC50 (H460 (human lung cancer)) [µM] | Structure (SMILES) | fold more active than CA-4 on HT-29 ([3]; ratio of IC50 values) [fold] | fold more active than Crolibulin on HT-29 cell ([3]; ratio of IC50 values) | fold more potent than 5a on HT-29 cell ([3]; ratio of IC50 values) | IC50 (H460 (human lung cancer); Homo sapiens, NCI-H460) [µM]
1 | 76.2 ± 8.98 | 17.5 ± 1.53 | 1.24 ± 0.08 | 0.24 ± 0.01 | 12.2 ± 1.89 | 316.5 to 318.7 |  | COc1cccc(-c2cc(-c3c[nH]c4ccccc34)n3ccnc3c2C#N)c1 [5c, 5-(1H-indol-3-yl)-7-(3-methoxyphenyl)imidazo[1,2-a]pyridine-8-carbonitrile] |  |  |  | 
2 | > 100 | 11.4 ± 1.68 | 7.38 ± 0.63 | 1.74 ± 0.14 | 67.3 ± 7.43 | 337.9 to 342.4 |  | N#Cc1c(-c2ccccc2)cc(-c2c[nH]c3ccc(Br)cc23)n2ccnc12 [5r, 5-(5-bromo-1H-indol-3-yl)-7-phenylimidazo[1,2-a]pyridine-8-carbonitrile] |  |  |  | 
3 | 21.6 ± 3.16 | 0.96 ± 0.06 | 20.5 ± 2.32 | 0.03 ± 0.003 | 3.54 ± 0.41 | 170.7 to 172.6 |  | CCNCc1cn2c(-c3c[nH]c4ccccc34)cc(-c3ccc(F)cc3Cl)c(C#N)c2n1 [7b, 7-(2-chloro-4-fluorophenyl)-2-((ethylamino)methyl)-5-(1H-indol-3-yl)imidazo[1,2-a]pyridine-8-carbonitrile] | ~1.7 | about 17 fold |  | 
4 | 27.4 ± 2.32 |  | 1.74 ± 0.15 | 0.46 ± 0.03 | 1.75 ± 0.13 | 302.7 to 304.8 |  | COc1cc(OC)c(OC)c(-c2cc(-c3c[nH]c4ccccc34)n3ccnc3c2C#N)c1 [5q, 5-(1H-indol-3-yl)-7-(2,3,5-trimethoxyphenyl)imidazo[1,2-a]pyridine-8-carbonitrile] |  |  |  | 
5 | 71.5 ± 9.43 | 9.61 ± 0.76 | 1.64 ± 0.07 | 0.43 ± 0.03 | 15.5 ± 2.13 | 294.7 to 295.5 |  | COc1ccc(-c2cc(-c3c[nH]c4ccccc34)n3ccnc3c2C#N)cc1 [5d, 5-(1H-indol-3-yl)-7-(4-methoxyphenyl)imidazo[1,2-a]pyridine-8-carbonitrile] |  |  |  | 
6 | 18.5 ± 2.76 | 0.076 ± 0.01 | 1.43 ± 0.12 | 0.03 ± 0.009 |  | 341.6 to 343.8 |  | N#Cc1c(-c2ccc(F)c(F)c2)cc(-c2c[nH]c3ccccc23)n2ccnc12 [5j, 7-(3,4-difluorophenyl)-5-(1H-indol-3-yl)imidazo[1,2-a]pyridine-8-carbonitrile] |  |  |  | 
7 | 53.5 ± 7.76 | 1.16 | 2.76 ± 0.47 | 0.12 ± 0.02 | 8.54 ± 0.93 | 307.8 to 309.5 | 0.95 ± 0.03 | N#Cc1c(-c2ccc(Br)cc2)cc(-c2c[nH]c3ccccc23)n2ccnc12 [5h, 7-(4-bromophenyl)-5-(1H-indol-3-yl)imidazo[1,2-a]pyridine-8-carbonitrile] |  |  | about 2.5 fold | 
8 | 36.7 ± 4.92 | 0.96 ± 0.07 | 22.4 ± 2.51 | 0.33 ± 0.04 | 6.18 ± 0.71 | 222.2 to 225.3 |  | CC(C)NCc1cn2c(-c3c[nH]c4ccccc34)cc(-c3ccc(F)cc3Cl)c(C#N)c2n1 [7c, 7-(2-chloro-4-fluorophenyl)-5-(1H-indol-3-yl)-2-((isopropylamino)methyl)imidazo[1,2-a]pyridine-8-carbonitrile] |  |  |  | 
9 | 28.7 ± 1.79 | 1.27 ± 0.14 | 36.3 ± 5.15 | 0.92 ± 0.14 | 16.9 ± 1.98 | 201.3 to 203.5 |  | N#Cc1c(-c2ccc(F)cc2Cl)cc(-c2c[nH]c3ccccc23)n2cc(CN3CCOCC3)nc12 [7h, 7-(2-chloro-4-fluorophenyl)-5-(1H-indol-3-yl)-2-(morpholinomethyl)imidazo[1,2-a]pyridine-8-carbonitrile] |  |  |  | 
10 | 89.4 ± 2.6 | 2.79 ± 0.52 | 79.7 ± 8.1 | 0.3 ± 0.04 | 86.4 ± 7.33 | 338.3 to 339.7 |  | N#Cc1c(-c2ccccc2)cc(-c2c[nH]c3ccccc23)n2ccnc12 [5a, 5-(1H-indol-3-yl)-7-phenylimidazo[1,2-a]pyridine-8-carbonitrile] |  |  |  | 
11 | 10.4 ± 1.64 | 0.25 ± 0.031 | 9.67 ± 0.73 | 1.48 ± 0.27 | 1.18 ± 0.21 | 297.8 to 301.4 |  | N#Cc1c(-c2ccc(O)c(O)c2O)cc(-c2c[nH]c3ccccc23)n2ccnc12 [5p, 5-(1H-indol-3-yl)-7-(2,3,4-trihydroxyphenyl)imidazo[1,2-a]pyridine-8-carbonitrile] |  |  |  | 
12 | 79.2 ± 6.87 | 6.89 ± 0.67 | 64 ± 7.14 | > 100 | > 100 | 321.9 to 324.4 |  | N#Cc1c(-c2cccc(Br)c2)cc(-c2c[nH]c3ccccc23)n2ccnc12 [5g, 7-(3-bromophenyl)-5-(1H-indol-3-yl)imidazo[1,2-a]pyridine-8-carbonitrile] |  |  |  | 
13 | 11.3 ± 2.15 | 0.85 ± 0.06 | 1.63 ± 0.28 | 0.56 ± 0.07 | 20.3 ± 2.32 | 185.7 to 187.9 |  | CC1CCN(Cc2cn3c(-c4c[nH]c5ccccc45)cc(-c4ccc(F)cc4Cl)c(C#N)c3n2)CC1 [7f, 7-(2-chloro-4-fluorophenyl)-5-(1H-indol-3-yl)-2-((4-methylpiperidin-1-yl)methyl)imidazo[1,2-a]pyridine-8-carbonitrile] |  |  |  | 
14 | > 100 | 80.7 ± 6.98 | 56.8 ± 4.29 | 0.58 ± 0.06 | > 100 | 302.2 to 306.8 |  | N#Cc1c(-c2ccccc2Cl)cc(-c2c[nH]c3ccc(Br)cc23)n2ccnc12 [5t, 5-(5-bromo-1H-indol-3-yl)-7-(2-chlorophenyl)imidazo[1,2-a]pyridine-8-carbonitrile] |  |  |  | 
15 | 80.2 ± 7.54 | 1.07 ± 0.12 | 10.7 ± 1.85 | 0.92 ± 0.08 | > 100 | 309.2 to 312.3 |  | N#Cc1c(-c2ccc(O)c(Br)c2)cc(-c2c[nH]c3ccccc23)n2ccnc12 [5l, 7-(3-bromo-4-hydroxyphenyl)-5-(1H-indol-3-yl)imidazo[1,2-a]pyridine-8-carbonitrile] |  |  |  | 
16 | 22.1 ± 3.41 | 0.71 ± 0.05 | 16.6 ± 1.13 | 0.19 ± 0.02 | 7.53 ± 0.63 | 175.4 to 178.4 |  | CN(C)Cc1cn2c(-c3c[nH]c4ccccc34)cc(-c3ccc(F)cc3Cl)c(C#N)c2n1 [7d, 7-(2-chloro-4-fluorophenyl)-2-((dimethylamino)methyl)-5-(1H-indol-3-yl)imidazo[1,2-a]pyridine-8-carbonitrile] |  |  |  | 
17 | 20.5 ± 3.53 | 1.15 ± 0.13 | 18.3 ± 2.13 | 2.13 ± 0.12 | 2.45 ± 0.37 | 290.5 to 294.2 |  | N#Cc1c(-c2cc(Br)c(O)c(Br)c2)cc(-c2c[nH]c3ccccc23)n2ccnc12 [5m, 7-(3,5-dibromo-4-hydroxyphenyl)-5-(1H-indol-3-yl)imidazo[1,2-a]pyridine-8-carbonitrile] |  |  |  | 
18 | > 100 | 17.2 ± 1.34 | 31.2 ± 5.79 | 2.86 ± 0.38 | 67.3 ± 4.59 | 301.7 to 304.6 |  | N#Cc1c(-c2ccccc2F)cc(-c2c[nH]c3ccc(Br)cc23)n2ccnc12 [5s, 5-(5-bromo-1H-indol-3-yl)-7-(2-fluorophenyl)imidazo[1,2-a]pyridine-8-carbonitrile] |  |  |  | 
19 | 97.2 ± 6.54 | 9.61 ± 0.74 | 14.5 ± 2.43 | 1.16 ± 0.13 | 80.2 ± 9.68 | 327.7 to 330 |  | COc1cc(-c2cc(-c3c[nH]c4ccccc34)n3ccnc3c2C#N)c(Br)cc1O [5n, 7-(2-bromo-4-hydroxy-5-methoxyphenyl)-5-(1H-indol-3-yl)imidazo[1,2-a]pyridine-8-carbonitrile] |  |  |  | 

Row | Structure (SMILES) | IC50 [1] [µM] | IC50 (H460 (human lung cancer); Homo sapiens, NCI-H460, 72 h) [µM] | IC50 [2] [µM] | IC50 [3] [µM] | IC50 [4] [µM] | melting point [°C] | IC50 (H460 (human lung cancer)) [µM] | fold more active than CA-4 on HT-29 ([3]; ratio of IC50 values) [fold] | fold more active than Crolibulin on HT-29 cell ([3]; ratio of IC50 values) | fold more potent than 5a on HT-29 cell ([3]; ratio of IC50 values) | IC50 (H460 (human lung cancer); Homo sapiens, NCI-H460) [µM]
20 | COc1cc([C@H]2C(C#N)=C(N)Oc3c2ccc(N)c3N)cc(Br)c1OC [Crolibulin, reference compound] |  |  | 0.17 ± 0.03 | 0.52 ± 0.02 |  |  |  |  |  |  | 0.03 ± 0.007
